Results from ChEMBL document CHEMBL1649500, “GS-9191 is a novel topical prodrug of the nucleotide analog 9-(2-phosphonylmethoxyethyl)guanine with antiproliferative activity and possible utility in the treatment of human papillomavirus lesions” (Antimicrob Agents Chemother, 2009).
pEC50: −log10 of the molar value.

How the values were obtained:
HeLa = assay: Antiproliferative activity against HPV-transformed human HeLa cells after 7 days by SRB assay; type: functional, cell-based; conditions: 168 h
[1] = Antiproliferative activity against HPV-transformed human C4I cells after 7 days by SRB assay; type: functional, cell-based; conditions: C-4I, 168 h
HT-3 = assay: Antiproliferative activity against HPV-non-transformed human HT3 cells after 7 days by SRB assay; type: functional, cell-based; conditions: HT-3, 168 h
SCC-9 = assay: Antiproliferative activity against HPV-non-transformed human SCC9 cells after 7 days by SRB assay; type: functional, cell-based; conditions: SCC-9, 168 h
[2] = Antiproliferative activity against human lung fibroblast after 7 days by SRB assay; conditions: 168 h
SiHa [3] = assay: Inhibition of DNA synthesis in HPV-transformed human SiHa cells assessed as decrease in BrdU incorporation after 24 to 27 hrs by ELISA; type: functional, cell-based
SiHa [4] = assay: Inhibition of DNA synthesis in HPV-transformed human SiHa cells assessed as decrease in BrdU incorporation after 6 to 9 hrs by ELISA; type: functional, cell-based
SCC-4 = assay: Antiproliferative activity against HPV-non-transformed human SCC4 cells after 7 days by SRB assay; type: functional, cell-based; conditions: SCC-4, 168 h
[5] = Antiproliferative activity against human PHK after 7 days by SRB assay
ME-180 = assay: Antiproliferative activity against HPV-transformed human ME180 cells after 7 days by SRB assay; type: functional, cell-based; conditions: ME-180, 168 h
SiHa [6] = assay: Inhibition of DNA synthesis in HPV-transformed human SiHa cells assessed as decrease in BrdU incorporation after 72 to 75 hrs by ELISA; type: functional, cell-based
[7] = Antiproliferative activity against human CK after 7 days by SRB assay
Ca-Ski = assay: Antiproliferative activity against HPV-transformed human CaSki cells after 7 days by SRB assay; type: functional, cell-based; conditions: 168 h
SiHa [8] = assay: Inhibition of DNA synthesis in HPV-transformed human SiHa cells assessed as decrease in BrdU incorporation after 3 hrs by ELISA; type: functional, cell-based
[9] = Antiproliferative activity against NHBE cells after 7 days by SRB assay; type: cell-based; conditions: Homo sapiens, 168 h
[10] = Antiproliferative activity against HPV-transformed human MS751 cells after 7 days by SRB assay; type: functional, cell-based; conditions: MS751, 168 h
SiHa [11] = assay: Inhibition of DNA synthesis in HPV-transformed human SiHa cells assessed as decrease in BrdU incorporation after 3 to 6 hrs by ELISA; type: functional, cell-based
SiHa [12] = assay: Antiproliferative activity against HPV-transformed human SiHa cells after 7 days by SRB assay; type: functional, cell-based; conditions: 168 h
[13] = Antiproliferative activity against PHF after 7 days by SRB assay; set-up: species or system Homo sapiens
SiHa [14] = assay: Inhibition of DNA synthesis in HPV-transformed human SiHa cells assessed as decrease in BrdU incorporation after 48 to 51 hrs by ELISA; type: functional, cell-based
SiHa [15] = assay: Induction of apoptosis in HPV-transformed human SiHa cells assessed as viable cells at 180000 nM after 3 days by propidium iodide staining-based flow cytometry; type: functional; conditions: 72 h, read-out: Activity
SiHa [16] = assay: Induction of apoptosis in HPV-transformed human SiHa cells assessed as apoptotic cells at 180000 nM after 7 days by propidium iodide staining-based flow cytometry; type: functional
SiHa [17] = assay: Induction of apoptosis in HPV-transformed human SiHa cells assessed as viable cells at 180000 nM after 7 days by propidium iodide staining-based flow cytometry; type: functional; conditions: 168 h, read-out: Activity
SiHa [18] = assay: Induction of apoptosis in HPV-transformed human SiHa cells assessed as apoptotic cells at 180000 nM after 3 days by propidium iodide staining-based flow cytometry; type: functional
SiHa [19] = assay: Cell cycle arrest in HPV-transformed human SiHa cells assessed as accumulation at S phase at 10 times EC50 after 48 hrs by flow cytometry; type: functional
SiHa [20] = assay: Cell cycle arrest in HPV-transformed human SiHa cells assessed as accumulation at G0/G1 phase at 10 times EC50 after 48 hrs by flow cytometry; type: functional
[21] = Cell cycle arrest in human PHK cells assessed as accumulation at S phase at 10 times EC50 after 48 hrs by flow cytometry; type: cell-based
[22] = Cell cycle arrest in human PHK cells assessed as accumulation at G0/G1 phase at 10 times EC50 after 48 hrs by flow cytometry; type: cell-based
SiHa [23] = assay: Cell cycle arrest in HPV-transformed human SiHa cells assessed as accumulation at G2/M phase at 10 times EC50 after 48 hrs by flow cytometry; type: functional
[24] = Cell cycle arrest in human PHK cells assessed as accumulation at G2/M phase at 10 times EC50 after 48 hrs by flow cytometry; type: cell-based

Row | Structure (SMILES) | pEC50 (HeLa) | pEC50 [1] | pEC50 (HT-3) | pEC50 (SCC-9) | pEC50 [2] | pEC50 (SiHa [3]) | pEC50 (SiHa [4]) | pEC50 (SCC-4) | pEC50 [5] | pEC50 (ME-180) | pEC50 (SiHa [6]) | pEC50 [7] | pEC50 (Ca-Ski) | pEC50 (SiHa [8]) | pEC50 [9] | pEC50 [10] | pEC50 (SiHa [11]) | pEC50 (SiHa [12]) | pEC50 [13] | pEC50 (SiHa [14]) | further results
1 | Nc1nc(NC2CC2)c2ncn(CCOCP(=O)(O)O)c2n1 | 5.16 | 5.88 | 5.15 | 5.00 | 5.32 | 5.64 | 5.82 | 5.84 | 5.43 | 5.08 | < 4.70 | 5.86 | 5.85 | 5.05 | 5.64 | 5.48 | 5.73 | 6.54 | 4.90 | 5.58 | –
2 | Nc1ccn(C[C@@H](CO)OCP(=O)(O)O)c(=O)n1.O.O [CIDOFOVIR] | < 4.00 | 5.51 | < 4.00 | < 4.00 | 4.63 | – | – | < 4.00 | 4.84 | 4.19 | – | 4.29 | < 4.00 | – | 4.50 | < 4.00 | – | < 4.00 | < 4.00 | – | viability at 180 µM (SiHa [15]): 98.1%; Activity (SiHa [16]): 37.2%; viability at 180 µM (SiHa [17]): 62.2%; Activity (SiHa [18]): 1.6%
3 | Nc1nc2c(ncn2CCOCP(=O)(O)O)c(=O)[nH]1 [GS-438] | 5.67 | 6.33 | 5.71 | 5.50 | 6.54 | 5.44 | 5.59 | 6.80 | 6.26 | 5.59 | 5.00 | < 4.00 | 5.26 | 5.05 | 6.17 | 5.55 | 5.52 | 6.68 | 5.80 | 5.22 | –
4 | COc1cc([C@@H]2c3cc4c(cc3[C@H](O)[C@H]3COC(=O)[C@H]23)OCO4)cc(OC)c1OC [PODOFILOX] | – | – | – | – | – | – | – | – | – | – | – | – | – | – | – | – | – | – | – | – | Activity (SiHa [19]): 34.7%; Activity (SiHa [20]): 20.4%; Activity [21]: 16.7%; Activity [22]: 66.8%; Activity (SiHa [23]): 45%; Activity [24]: 16.5%
